Experiments:
[1] = Metabolic stability in mouse liver microsomes; type: in vitro ADME
Description: The metabolic stability of all PROTAC compounds in the screening phase (Table 1) was evaluated using mouse liver microsomes. Incubations were performed at 37 °C in phosphate buffer (pH 7.4) containing NADPH (1 mM), 0.5 mg/mL microsomal protein and 1 μM ITRI-148 (0.25 % DMSO) for 0, 5, 20, or 30 minutes, followed by quenching with acetonitrile (1:3, v/v) for HPLC analysis. To evaluate the species-specific metabolism of ITRI-148, its stability was assessed in liver microsomes from human, dog, rat, and mouse using same incubation conditions as above, with the time extending to 0, 15, 30, 45, and 60 minutes, followed by acetonitrile quenching (1:10) and LC-MS/MS analysis.

[2] = Pharmacokinetic analysis after oral dosing in mice; type: in vivo, BALB/c mice
Description: Six to eight-week-old male BALB/c (BALB/cAnNCrlBltw) mice (22-30 g) were purchased from BioLASCO Taiwan Co., Ilan, Taiwan. In vivo PK analysis of ITRI-148 was performed with 10 mg/kg for oral (PO, n = 3) dosing route. Blood samples from the mice were collected using Microvette® CB 300 EDTA blood collection tubes by a lancet at 0.167 h (IV only), 0.5, 1, 2, 4, 7 and 24 h time points. The plasma was then subjected to LC-MS analysis to quantitate the drug concentration using calibration curves that were established with drug standards prepared in mice plasma.

[3] = In vitro stability in plasma; type: in vitro ADME, mouse; conditions: mice plasma
Description: The stability of ITRI-148 was assessed in plasma across four species: humans, dogs, rats, and mice. ITRI-148 added to pre-warmed plasma at 1 μM was maintained at the designated temperature, and aliquots were collected at 0, 0.5, 1, 2, and 4 hours after incubation. At each time point, 20 μL of the samples was taken to terminate the reaction, followed by LC-MS/MS analysis to determine the remaining compound concentration. Data from duplicated experiments was calculated and presented as mean ± SD.

[4] = male, BALB/c, mouse, plasma, po, 10 mg/kg

O=C1CCC(N2C(=O)c3cccc(NCC(=O)N4CCC(N5CCC(C#Cc6ccc(C7CCN(C8=Nn9c(nnc9C(F)(F)F)CC8)CC7)cc6)CC5)CC4)c3C2=O)C(=O)N1 (stereo not drawn) [ITRI-148]
Remaining of intact drug (%) ([1]; mice liver microsomes, 1 μM, incubation up to 60 minutes): 80.7 ± 1.8%
remaining at 0.5 h, 1 μM ([1]; mouse, liver microsomes, pH 7.4, mice microsomes, 30 min of incubation, read-out: Microsome stability (% remaining)): 97.2%
half-life at 1 μM ([1]; mouse, pH 7.4, mice liver microsomes, read-out: Plasma Stability t1/2 (microsome panel)): > 1 h
AUC/Dose ([2]; PO, 10 mg/kg, 0-24 h per dosing): 990.1 h⋅kg⋅ng/mL/mg
BA ([2]; PO, 10 mg/kg, bioavailability): 27.1 ± 0.5%
PK (PO, 10 mg/kg) BA ([2]; PO, bioavailability): 27.1%
AUC [2, 4]: 9900 ng·h/mL
Cmax [2, 4]: 733 ± 45 ng/mL
Tmax [2, 4]: 4 h
AUC(0-t) ([2]; male, BALB/c, mouse, plasma, PO, 10 mg/kg, between 0 and 24 h): 9900 ng·h/mL
Remaining of intact drug (%) ([3]; 1 μM, incubation up to 4 hours): 80.2 ± 0.3%
half-life at 1 μM ([3]; mouse, read-out: Plasma Stability t1/2): > 4 h
